Measured values published in paper PMC4206519, “Lack of Renoprotective Effect of Chronic Intravenous Angiotensin-(1-7) or Angiotensin-(2-10) in a Rat Model of Focal Segmental Glomerulosclerosis” (PLoS ONE, 2014).
Where no end group is shown, it is not given here.

Test system: kidney homogenates of uni-nephrectomized FHH rats
Assay: Intrarenal Ang peptide content by parallel reaction monitoring (LC/MS/MS), late disease protocol
Format: in vivo, rat
Details: kidneys harvested at sacrifice, late disease model; chronic iv infusion 100-400 ng/kg/min; whole kidney homogenate; LC-MS/MS (PRM)
Method: Stable isotope labeled peptide standards (SIS, ^13C ^15N, New England Peptide, Gardner, MA) were resuspended in water to 1 nM and stored at −80C in Lo-Bind microcentrifuge tubes (Eppendorf) with the exception of Ang-I, which was resuspended in 30% acetonitrile and stored at 0.4 nM final concentration. Ang-(1-7), Ang-II, and Ang-(2-10) contained isotopically labeled valine. Ang-I contained isotopically labeled valine and proline. Peptide concentration was determined by amino acid analysis.
Tissues were stored frozen at −80°C in 15 ml Falcon tubes. Whole kidney tissues were submerged in liquid nitrogen for 5 minutes and kidney tissue was processed in a biopulverizer (MidSci, St. Louis, MO) to a fine powder. Pulverized tissue was transferred to a 5-ml glass dounce with a chilled spatula. Approximately 200 mg of tissue was used for peptide extraction. Four volumes of ice cold methanol (Burdick and Jackson, LC-MS Grade) were added to the tissue followed by a volume of water (Burdick and Jackson, LC-MS Grade) containing O-phenanthroline (Sigma Aldrich) and SIS peptides resulting in a final concentration of 1 mM and 1.8 nM, respectively. Tissue was homogenized in the dounce on ice for 1 minute. An aliquot of tissue homogenate was transferred to a 2-ml lo-bind microcentrifuge tube and stored at −20°C for at least 1 hour. Samples were further centrifuged for 10 minutes at 10,000×g at 4°C. An aliquot equal to approximately 60% of the total sample volume was transferred to a lo-bind tube equivalent to 100 mg of tissue (wet weight). From this aliquot, a volume equal to the wet weight of the starting tissue was transferred to a new lo-bind tube and diluted with ice cold water so that the final concentration of methanol was 40%. […] The filtrate volume was estimated by variable volume pipet and recorded to determine the fraction of starting volume collected. […] Declustering potential was set at 80 V. For parallel reaction monitoring (PRM) quantification, the dominant charge state of each peptide was determined and collision energies were optimized manually for SIS peptides (Table 1). […]

For RVYIHPFHL [Ang-(2-10)], the “intrarenal level of the exogenously administered peptide (in words)” value was “did not lead to a significant increase”.
